Experiments:
Assay type in all cases: functional
Rattus norvegicus [1] = assay: Antiinflammatory activity in rat assessed as inhibition of carrageenan-induced paw edema at 100 mg/kg, po
Rattus norvegicus [2] = assay: Antiinflammatory activity in rat assessed as inhibition of carrageenan-induced paw edema at 0.125 mg/kg, po
Rattus norvegicus [3] = assay: Antiinflammatory activity in rat assessed as inhibition of carrageenan-induced paw edema at 2 mg/kg, po

With `CC(=O)Oc1ccccc1C(=O)O` [ASPIRIN] the inhibition in vivo at 100 mg/kg (Rattus norvegicus [1]) was 44%.
Work on `C[C@H]1C[C@H]2[C@@H]3CCC4=CC(=O)C=C[C@]4(C)[C@@]3(F)[C@@H](O)C[C@]2(C)[C@@]1(O)C(=O)CO` [BETAMETHASONE] yielded an inhibition in vivo at 0.125 mg/kg (Rattus norvegicus [2]) of 63%.
With `COc1ccc2c(c1)c(CC(=O)O)c(C)n2C(=O)c1ccc(Cl)cc1` [INDOMETHACIN] the inhibition in vivo at 2 mg/kg (Rattus norvegicus [3]) was 47%.

Source: ChEMBL document CHEMBL1147368, “Constituents of Fevillea cordifolia: New Norcucurbitacin and Cucurbitacin Glycosides” (1993)
